Data taken from PubChem BioAssay (NCI).
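Where inhibition never reached the appropriate level, the endpoint shown equals the highest concentration tested. Otherwise, values were interpolated linearly from a five-concentration, 48-hour dose response in 96-well plates. Here, GI50 denotes the concentration required for 50% inhibition of growth. At the TGI there is no net growth.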

Key:
Test in all cases: inhibition of tumour cell growth, NCI panel, 48 h
[1] = test system: SK-MEL-5 melanoma
[2] = test system: KM12 colon
[3] = test system: U251 CNS
[4] = test system: UACC-257 melanoma
[5] = test system: NCI-H522 lung
[6] = test system: OVCAR-4 ovarian
[7] = test system: HOP-62 NSCLC
[8] = test system: SF-539 CNS
[9] = test system: SK-OV-3 ovarian
[10] = test system: NCI/ADR-RES ovarian
[11] = test system: SN12C renal
[12] = test system: MDA-MB-231 breast
[13] = test system: SK-MEL-28 melanoma
[14] = test system: HT29 colon
[15] = test system: CAKI-1 renal
[16] = test system: A498 renal
[17] = test system: SF-295 CNS
[18] = test system: RXF 393 renal
[19] = test system: SK-MEL-2 melanoma
[20] = test system: HS 578T breast
[21] = test system: HL-60(TB) leukemia
[22] = test system: IGROV1 ovarian
[23] = test system: PC-3 prostate
[24] = test system: OVCAR-8 ovarian
[25] = test system: HCC-2998 colon
[26] = test system: T-47D breast
[27] = test system: CCRF-CEM leukemia
[28] = test system: MALME-3M melanoma
[29] = test system: SF-268 CNS
[30] = test system: 786-0 renal
[31] = test system: BT-549 breast
[32] = test system: UACC-62 melanoma
[33] = test system: OVCAR-5 ovarian
[34] = test system: NCI-H226 lung
[35] = test system: MOLT-4 leukemia
[36] = test system: A549 NSCLC
[37] = test system: HCT-116 colon
[38] = test system: ACHN renal
[39] = test system: M14 melanoma
[40] = test system: LOX IMVI melanoma
[41] = test system: OVCAR-3 ovarian
[42] = test system: HCT-15 colon
[43] = test system: RPMI-8226 leukemia
[44] = test system: TK-10 renal
[45] = test system: NCI-H23 lung
[46] = test system: UO-31 renal
[47] = test system: MDA-MB-435
[48] = test system: SR leukemia
[49] = test system: K-562 leukemia
[50] = test system: SW-620 colon
[51] = test system: SNB-19 CNS
[52] = test system: SNB-75 CNS
[53] = test system: COLO 205 colon
[54] = test system: NCI-H460 lung
[55] = test system: EKVX NSCLC
[56] = test system: MCF7 breast
[57] = test system: DU-145 prostate
[58] = test system: HOP-92 NSCLC

Compound: Cc1cc(C)cc(Nc2nnc3n2S(=O)(=O)c2cc(C)c(Cl)cc2S3)c1
- TGI [1]: 24.7 µM
- TGI [2]: 33.2 µM
- TGI [3]: 22.9 µM
- TGI [4]: 30.5 µM
- TGI [5]: 22.6 µM
- TGI [6]: > 100 µM
- TGI [7]: 41.6 µM
- TGI [8]: 13.7 µM
- TGI [9]: > 100 µM
- TGI [10]: 9.26 µM
- TGI [11]: 48.5 µM
- TGI [12]: 33.2 µM
- TGI [13]: > 100 µM
- TGI [14]: > 100 µM
- TGI [15]: > 100 µM
- TGI [16]: 29.6 µM
- TGI [17]: > 100 µM
- TGI [18]: 17.2 µM
- TGI [19]: 15.8 µM
- TGI [20]: 26.9 µM
- TGI [21]: > 100 µM
- TGI [22]: 80.6 µM
- TGI [23]: 10.1 µM
- TGI [24]: > 100 µM
- TGI [25]: 16.6 µM
- TGI [26]: > 100 µM
- TGI [27]: > 100 µM
- TGI [28]: 13.7 µM
- TGI [29]: 31.1 µM
- TGI [30]: > 100 µM
- TGI [31]: 70.9 µM
- TGI [32]: 34.9 µM
- TGI [33]: > 100 µM
- TGI [34]: 30.5 µM
- TGI [35]: > 100 µM
- TGI [36]: 45.1 µM
- TGI [37]: > 100 µM
- TGI [38]: 47.8 µM
- TGI [39]: 33.4 µM
- TGI [40]: 21.3 µM
- TGI [41]: 17.5 µM
- TGI [42]: 28.3 µM
- TGI [43]: 42 µM
- TGI [44]: 38.5 µM
- TGI [45]: 19.2 µM
- TGI [46]: > 100 µM
- TGI [47]: 91.2 µM
- TGI [48]: 13.9 µM
- TGI [49]: > 100 µM
- TGI [50]: 21.1 µM
- TGI [51]: 49.3 µM
- TGI [52]: > 100 µM
- TGI [53]: > 100 µM
- TGI [54]: 24.8 µM
- TGI [55]: 52.2 µM
- TGI [56]: 36 µM
- TGI [57]: 97 µM

Compound: O=c1cc(-c2ccc(Cl)cc2)[nH]c2ccccc12
- GI50 [1]: 26.7 µM
- TGI [1]: > 100 µM
- GI50 [2]: 27.2 µM
- TGI [2]: > 100 µM
- GI50 [3]: 41.5 µM
- TGI [3]: > 100 µM
- GI50 [4]: > 100 µM
- TGI [4]: > 100 µM
- GI50 [5]: 59.6 µM
- TGI [5]: > 100 µM
- GI50 [6]: > 100 µM
- TGI [6]: > 100 µM
- GI50 [7]: 61.4 µM
- TGI [7]: > 100 µM
- GI50 [8]: 52.8 µM
- TGI [8]: > 100 µM
- GI50 [9]: 44.8 µM
- TGI [9]: > 100 µM
- GI50 [10]: 27.1 µM
- TGI [10]: > 100 µM
- GI50 [11]: > 100 µM
- TGI [11]: > 100 µM
- GI50 [12]: 57 µM
- TGI [12]: > 100 µM
- GI50 [13]: > 100 µM
- TGI [13]: > 100 µM
- GI50 [14]: 40.7 µM
- TGI [14]: > 100 µM
- GI50 [15]: 47.3 µM
- TGI [15]: > 100 µM
- GI50 [16]: 51.6 µM
- TGI [16]: > 100 µM
- GI50 [17]: 41.2 µM
- TGI [17]: > 100 µM
- GI50 [18]: 45.9 µM
- TGI [18]: > 100 µM
- GI50 [19]: > 100 µM
- TGI [19]: > 100 µM
- GI50 [58]: 64.2 µM
- TGI [58]: > 100 µM
- GI50 [20]: 28.9 µM
- TGI [20]: > 100 µM
- GI50 [21]: 5.62 µM
- TGI [21]: > 100 µM
- GI50 [22]: 61.5 µM
- TGI [22]: > 100 µM
- GI50 [23]: 35.2 µM
- TGI [23]: > 100 µM
- GI50 [24]: > 100 µM
- TGI [24]: > 100 µM
- GI50 [25]: > 100 µM
- TGI [25]: > 100 µM
- GI50 [26]: 63.2 µM
- TGI [26]: > 100 µM
- GI50 [28]: 53.5 µM
- TGI [28]: > 100 µM
- GI50 [29]: 83.3 µM
- TGI [29]: > 100 µM
- GI50 [30]: 64.8 µM
- TGI [30]: > 100 µM
- GI50 [31]: 29.4 µM
- TGI [31]: > 100 µM
- GI50 [32]: 37.4 µM
- TGI [32]: > 100 µM
- GI50 [33]: > 100 µM
- TGI [33]: > 100 µM
- GI50 [34]: > 100 µM
- TGI [34]: > 100 µM
- GI50 [35]: 46.8 µM
- TGI [35]: > 100 µM
- GI50 [36]: > 100 µM
- TGI [36]: > 100 µM
- GI50 [37]: 32.5 µM
- TGI [37]: > 100 µM
- GI50 [38]: 57.8 µM
- TGI [38]: > 100 µM
- GI50 [39]: 27.8 µM
- TGI [39]: > 100 µM
- GI50 [40]: 39.3 µM
- TGI [40]: > 100 µM
- GI50 [41]: 31.2 µM
- TGI [41]: > 100 µM
- GI50 [42]: 12.9 µM
- TGI [42]: > 100 µM
- GI50 [43]: 46.9 µM
- TGI [43]: > 100 µM
- GI50 [44]: > 100 µM
- TGI [44]: > 100 µM
- GI50 [45]: 63 µM
- TGI [45]: > 100 µM
- GI50 [46]: > 100 µM
- TGI [46]: > 100 µM
- GI50 [47]: 2.89 µM
- TGI [47]: 28.5 µM
- GI50 [48]: 4.76 µM
- TGI [48]: > 100 µM
- GI50 [49]: 7.03 µM
- TGI [49]: > 100 µM
- GI50 [50]: 27.7 µM
- TGI [50]: > 100 µM
- GI50 [51]: 95.3 µM
- TGI [51]: > 100 µM
- GI50 [52]: 37.4 µM
- TGI [52]: > 100 µM
- GI50 [53]: 35.1 µM
- TGI [53]: > 100 µM
- GI50 [54]: 39.6 µM
- TGI [54]: > 100 µM
- GI50 [55]: 51.4 µM
- TGI [55]: > 100 µM
- GI50 [56]: 41.3 µM
- TGI [56]: > 100 µM
- GI50 [57]: 66.4 µM
- TGI [57]: > 100 µM

Compound: C=CCn1c(-c2cc(C(C)(C)C)c(O)c(C(C)(C)C)c2)cs/c1=N\C(P(=O)(O)O)P(=O)(O)O
- TGI [2]: > 100 µM
- TGI [3]: > 100 µM
- TGI [6]: > 100 µM
- TGI [7]: > 100 µM
- TGI [8]: > 100 µM
- TGI [9]: > 100 µM
- TGI [10]: > 100 µM
- TGI [11]: > 100 µM
- TGI [12]: > 100 µM
- TGI [13]: > 100 µM
- TGI [14]: > 100 µM
- TGI [15]: > 100 µM
- TGI [16]: > 100 µM
- TGI [17]: > 100 µM
- TGI [19]: > 100 µM
- TGI [58]: > 100 µM
- TGI [20]: > 100 µM
- TGI [21]: > 100 µM
- TGI [22]: > 100 µM
- TGI [23]: > 100 µM
- TGI [24]: > 100 µM
- TGI [25]: > 100 µM
- TGI [26]: > 100 µM
- TGI [28]: > 100 µM
- TGI [29]: > 100 µM
- TGI [30]: > 100 µM
- TGI [31]: > 100 µM
- TGI [33]: > 100 µM
- TGI [34]: > 100 µM
- TGI [35]: > 100 µM
- TGI [36]: > 100 µM
- TGI [37]: > 100 µM
- TGI [38]: > 100 µM
- TGI [39]: > 100 µM
- TGI [41]: > 100 µM
- TGI [42]: > 100 µM
- TGI [43]: > 100 µM
- TGI [44]: > 100 µM
- TGI [45]: > 100 µM
- TGI [46]: > 100 µM
- TGI [47]: > 100 µM
- TGI [48]: > 100 µM
- TGI [49]: > 100 µM
- TGI [50]: > 100 µM
- TGI [51]: > 100 µM
- TGI [52]: > 100 µM
- TGI [53]: > 100 µM
- TGI [54]: > 100 µM
- TGI [55]: > 100 µM
- TGI [56]: > 100 µM
- TGI [57]: > 100 µM
